Laboratory results taken from patent publication US20200256853A1, “Models of Reconstructed Sensitive Skin” (Laboratoires Expanscience, priority 2017, published 2020).

Legend:
Type in all cases: cell-based
[1] = tested on: reconstructed Sensitive Skin model (reconstructed human epidermises treated with 0.6% lactic acid); assay: Intracellular measurements of inflammatory mediators (ELISA) in reconstructed Sensitive Skin model, Example 3
Protocol: (§1) Intracellular amounts of IL-1α, IL8 and IL1-RA were determined by ELISA (R&D Systems) in ground epidermis (n=2).
(§2) Reconstructed human epidermises were obtained from the keratinocytes of a […] donor using the method derived from Poumay et al. (Arch Dermatol Res 2004; 296:203-11). After 2 days of immersion culture, the reconstructed human epidermises were cultured at the air/liquid interface for 10 days.
(§3) Epidermises at differentiation day 10 was treated or not (control) systemically with the test compounds and incubated for 24 hours.
(§4) The amount of inflammatory mediators IL-1alpha (IL1α), IL-8 and PGE2 present in skin culture supernatants was evaluated using ELISA kits (R&D Systems). • Evaluations of intracellular inflammatory markers IL-1α, IL8 and IL1-RA (n=2)
(§5) Same protocol as described in Example 2. • Determination of Poly-Unsaturated Fatty Acids (PUFAs) (n=2)

[2] = tested on: reconstructed Sensitive Skin model (reconstructed human epidermises treated with 0.6% lactic acid); assay: Determinations of released inflammatory mediators (ELISA) in reconstructed Sensitive Skin model, Example 3
Protocol: as §2, §3, §4

[3] = tested on: reconstructed Sensitive Skin model (reconstructed human epidermises treated with 0.6% lactic acid); assay: Determination of PUFAs (GC/MS) in reconstructed Sensitive Skin model, Example 3
Protocol: (§6) Screening of polyunsaturated fatty acids (PUFAs) expressed by the epidermis was carried out by GC/MS analysis of samples obtained after grinding the epidermises (n=2).
(§7) The amounts were normalized by C16:0 (palmitic acid), which is representative of the overall lipid content of the epidermis.
as §2, §3, §5
Same protocol as described in Example 2.

[4] = tested on: reconstructed human epidermises; assay: Gene expression in reconstructed epidermises (qRT-PCR); details: Lactic acid 0.6%; control = 100
Protocol: Reconstructed human epidermises were obtained from the keratinocytes of a donor using the method derived from Poumay et al. (Arch Dermatol Res 2004; 296:203-11). After 2 days of immersion culture, the reconstructed human epidermises were cultured at the air/liquid interface for 10 days. […] Gene expression of inflammatory markers and of markers of innate immunity and defense was evaluated by real-time quantitative PCR (qRT-PCR) on messenger RNAs extracted from epidermis (n=2). Gene expression of the innate immunity and defense markers, beta-defensin 2 hBD2, or Toll-like receptor 2, was also evaluated in the same way. The gene expression analysis was performed in duplicate using a PCR array. The quantitative analysis of gene expression was based on the analysis of threshold cycles; relative expression (RE) was expressed in arbitrary units according to the following formula: RE=(½ number of cycles)×10^6

[5] = tested on: reconstructed human epidermises; assay: Immunolabeling of involucrin in reconstructed epidermis; details: Lactic acid 0.6%; fluorescence intensity vs. control
Protocol: Reconstructed human epidermises were obtained from the keratinocytes of a donor using the method derived from Poumay et al. (Arch Dermatol Res 2004; 296:203-11). After 2 days of immersion culture, the reconstructed human epidermises were cultured at the air/liquid interface for 10 days. […] On the other hand, involucrin was stained by immunofluorescence (Alexa-488; green dye), the nuclei were stained by propidium iodide (red dye). The involucrin staining was quantified by measuring the fluorescence intensity reported on the surface of the living layers of the epidermis.

[6] = tested on: reconstructed human epidermises; assay: Intracellular determinations of inflammatory markers (ELISA), Example 2; details: Lactic acid 0.6%
Protocol: (§8) Reconstructed human epidermises were obtained from the keratinocytes of a donor using the method derived from Poumay et al. (Arch Dermatol Res 2004; 296:203-11). After 2 days of immersion culture, the reconstructed human epidermises were cultured at the air/liquid interface for 10 days.
as §1

[7] = tested on: reconstructed human epidermises; assay: Determinations of released inflammatory markers, Example 2; details: Lactic acid 0.6%
Protocol: Reconstructed human epidermises were obtained from the keratinocytes of a donor using the method derived from Poumay et al. (Arch Dermatol Res 2004; 296:203-11). After 2 days of immersion culture, the reconstructed human epidermises were cultured at the air/liquid interface for 10 days. […] The amount of inflammatory markers present in culture supernatants was assessed (n=6) using CBA kits (BD Biosciences) for IL-1 alpha (IL1α) and IL-8; and ELISA kits for VEGF (R&D Systems) and PGE2 (Enzo).

[8] = tested on: reconstructed human epidermises; assay: Determination of polyunsaturated fatty acids (PUFAs) in reconstructed epidermises (GC/MS), Example 2; details: Lactic acid 0.6%
Protocol: as §8, §6, §7

[9] = tested on: reconstructed human epidermises; assay: Viability of reconstructed epidermises (MTT); details: Lactic acid 0.6% topical, 48 h; control 100%; donor
Protocol: as §8
The viability of the epidermises was assessed by an MTT metabolism test (n=2). The optical density (OD) at 540 nm is proportional to the amount of living cells and their metabolic activity.

[10] = GLY 0.005% + lactic acid 0.6%, change vs. lactic acid
[11] = GLY 0.01% + lactic acid 0.6%, change vs. lactic acid
[12] = Lactic acid 0.6%, change vs. control

CC1(C)[C@@H](O[C@H]2O[C@H](C(=O)[O-])[C@@H](O)[C@H](O)[C@H]2O[C@@H]2O[C@H](C(=O)[O-])[C@@H](O)[C@H](O)[C@H]2O)CC[C@]2(C)[C@H]3C(=O)C=C4[C@@H]5C[C@@](C)(C(=O)O)CC[C@]5(C)CC[C@@]4(C)[C@]3(C)CC[C@@H]12.[K+].[K+] [GLY, Dipotassium glycyrrhizinate]
IL1RA/IL1-alpha ratio Mean ± SD ([1]; GLY 0.005% + lactic acid 0.6%): 25.6 ± 1.29
Intracellular IL1-alpha Mean ± SD ([1]; GLY 0.005% + lactic acid 0.6%): 987.5 ± 101.1 pg/mg protein
Intracellular IL1RA Mean ± SD ([1]; GLY 0.005% + lactic acid 0.6%): 25195 ± 1305 pg/mg protein
Intracellular IL8 Mean ± SD ([1]; GLY 0.005% + lactic acid 0.6%): 78.39 ± 6.350 pg/mg protein
IL1RA/IL1-alpha ratio Change [1, 10]: +3%
Intracellular IL1-alpha Change [1, 10]: −5%
Intracellular IL1RA Change [1, 10]: −2%
Intracellular IL8 Change [1, 10]: −1%
IL1RA/IL1-alpha ratio Mean ± SD ([1]; GLY 0.01% + lactic acid 0.6%): 19.1 ± 0.212
Intracellular IL1-alpha Mean ± SD ([1]; GLY 0.01% + lactic acid 0.6%): 587.0 ± 63.64 pg/mg protein
Intracellular IL1RA Mean ± SD ([1]; GLY 0.01% + lactic acid 0.6%): 11244 ± 1341 pg/mg protein
Intracellular IL8 Mean ± SD ([1]; GLY 0.01% + lactic acid 0.6%): 50.17 ± 3.366 pg/mg protein
IL1RA/IL1-alpha ratio Change [1, 11]: −23%
Intracellular IL1-alpha Change [1, 11]: −44%
Intracellular IL1RA Change [1, 11]: −56%
Intracellular IL8 Change [1, 11]: −37%
IL1RA/IL1α ratio (in words) ([1]; concentration not given): maintained the IL1RA/IL1α ratio
Increase in intracellular IL1RA level induced by lactic acid treatment (in words) ([1]; concentration not given): significantly inhibited
Increase in intracellular IL1α level induced by lactic acid treatment (in words) ([1]; concentration not given): significantly inhibited
Increase in intracellular IL8 level induced by lactic acid treatment (in words) ([1]; concentration not given): significantly inhibited
Released IL1-alpha Mean ± Standard deviation ([2]; GLY 0.005% + lactic acid 0.6%): 28 ± 10 pg/mL
Released IL8 Mean ± Standard deviation ([2]; GLY 0.005% + lactic acid 0.6%): 211 ± 41 pg/mL
Released PGE2 Mean ± Standard deviation ([2]; GLY 0.005% + lactic acid 0.6%): 94 ± 36 pg/mL
Released IL1-alpha Change [2, 10]: −59%
Released IL8 Change [2, 10]: +1%
Released PGE2 Change [2, 10]: −52%
Released IL1-alpha Mean ± Standard deviation ([2]; GLY 0.01% + lactic acid 0.6%): 35 ± 16 pg/mL
Released IL8 Mean ± Standard deviation ([2]; GLY 0.01% + lactic acid 0.6%): 244 ± 138 pg/mL
Released PGE2 Mean ± Standard deviation ([2]; GLY 0.01% + lactic acid 0.6%): 137 ± 83 pg/mL
Released IL1-alpha Change [2, 11]: −49%
Released IL8 Change [2, 11]: +17%
Released PGE2 Change [2, 11]: −31%
Release of IL1α induced by lactic acid (in words) ([2]; concentration not given): significantly inhibited
Release of PGE2 induced by lactic acid (in words) ([2]; concentration not given): significantly inhibited
C18:1 Mean ± SD, amount normalized to C16:0 ([3]; GLY 0.005% + lactic acid 0.6%): 0.2785
C18:2 LA Mean ± SD, amount normalized to C16:0 ([3]; GLY 0.005% + lactic acid 0.6%): 0.1600
C20:4 AA Mean ± SD, amount normalized to C16:0 ([3]; GLY 0.005% + lactic acid 0.6%): 0.0435
C18:1 Change [3, 10]: −28%
C18:2 LA Change [3, 10]: −25%
C20:4 AA Change [3, 10]: −24%
C18:1 Mean ± SD, amount normalized to C16:0 ([3]; GLY 0.01% + lactic acid 0.6%): 0.2680
C18:2 LA Mean ± SD, amount normalized to C16:0 ([3]; GLY 0.01% + lactic acid 0.6%): 0.1440
C20:4 AA Mean ± SD, amount normalized to C16:0 ([3]; GLY 0.01% + lactic acid 0.6%): 0.0395
C18:1 Change [3, 11]: −31%
C18:2 LA Change [3, 11]: −32%
C20:4 AA Change [3, 11]: −31%

CC(O)C(=O)O (centres unmarked) [Lactic acid, lactic acid]
ADCYAP1 gene expression [4]: 117
DEFB4A gene expression [4]: 6
IL1A gene expression [4]: 240
IL1B gene expression [4]: 195
IL1RN gene expression [4]: 144
IL8 gene expression [4]: 649
PLA2G2F2F gene expression [4]: 129
PTGS2 gene expression [4]: 182
THBS1 gene expression [4]: 181
TLR2 gene expression [4]: 54
TNF gene expression [4]: 105
VEGF-A gene expression [4]: 138
Decrease in the expression level of involucrin [5]: −22%
Intracellular IL1-RA Change vs. control [6]: +1242%
Intracellular IL1-alpha Change vs. control [6]: +806%
Intracellular IL8 Change vs. control [6]: +390%
Intracellular IL1-RA ([6]; 48 h): 31243 pg/mg protein
Intracellular IL1-alpha ([6]; 48 h): 794 pg/mg protein
Intracellular IL8 ([6]; 48 h): 52.1 pg/mg protein
Released IL1-alpha Change vs. control [7]: +221%
Released IL8 Change vs. control [7]: +84%
Released PGE2 Change vs. control [7]: +207%
Released VEGF Change vs. control [7]: +156%
Released IL1-alpha ([7]; 48 h, culture supernatant): 23 ± 7 pg/mL
Released IL8 ([7]; 48 h, culture supernatant): 120 ± 18 pg/mL
Released PGE2 ([7]; 48 h, culture supernatant): 149 ± 36 pg/mL
Released VEGF ([7]; 48 h, culture supernatant): 1109 ± 45 pg/mL
Intracellular IL1-alpha Mean ± SD ([1]; Lactic acid 0.6% topical, 48 h): 1044 ± 123.0 pg/mg protein
Intracellular IL1RA Mean ± SD ([1]; Lactic acid 0.6% topical, 48 h): 25750 ± 1974 pg/mg protein
Intracellular IL8 Mean ± SD ([1]; Lactic acid 0.6% topical, 48 h): 79.20 ± 7.715 pg/mg protein
Intracellular IL1-alpha Change [1, 12]: +277%
Intracellular IL1RA Change [1, 12]: +394%
Intracellular IL8 Change [1, 12]: +113%
Released IL1-alpha Mean ± Standard deviation ([2]; Lactic acid 0.6% topical, 48 h): 68 ± 34 pg/mL
Released IL8 Mean ± Standard deviation ([2]; Lactic acid 0.6% topical, 48 h): 209 ± 40 pg/mL
Released PGE2 Mean ± Standard deviation ([2]; Lactic acid 0.6% topical, 48 h): 197 ± 79 pg/mL
Released IL1-alpha Change [2, 12]: +511%
Released IL8 Change [2, 12]: +169%
Released PGE2 Change [2, 12]: +584%
C18:1 Change vs. control [8]: +20%
C18:1 amount normalized to C16:0 [8]: 0.226
C18:2 LA Change vs. control [8]: +19%
C18:2 LA amount normalized to C16:0 [8]: 0.216
C20:4 AA Change vs. control [8]: +42%
C20:4 AA amount normalized to C16:0 [8]: 0.050
Viability [9]: 66%
C18:1 Mean ± SD, amount normalized to C16:0 ([3]; Lactic acid 0.6% topical, 48 h): 0.3880
C18:2 LA Mean ± SD, amount normalized to C16:0 ([3]; Lactic acid 0.6% topical, 48 h): 0.2130
C20:4 AA Mean ± SD, amount normalized to C16:0 ([3]; Lactic acid 0.6% topical, 48 h): 0.0575
C18:1 Change [3, 12]: +110%
C18:2 LA Change [3, 12]: +134%
C20:4 AA Change [3, 12]: +113%
